Assay results as given in patent US20060194217A1, “Method of genotyping and phenotyping hepatitis B viruses resistant to antiviral molecules” (priority 2005, published 2006).

Assays:
[1] = tested on: HBV quasi-species of patient sample N° 7; test: High throughput phenotyping assay: patient sample N° 7; assay type: cell-based, hepatitis B virus; conditions: for IC50: Hepatitis B virus, 96 h, sample N° 7, M18 3TC, INNO LiPA L80V M204I, 4 days treatment; for Increase in resistance: sample N° 7, IC50 compared with referent virus
Description: (§1) The DNA from 1 ml of serum was extracted using the QIAamp Ultrasens Virus kit (Qiagen), and was taken up in 60 μl of water.
(§2) An amplification of the whole genomes by the method of the invention including the Nar I site was carried out and the amplicons obtained were purified by means of a silica column (Qiagen kit, Qiaquick purification kit).
(§3) The amplicons were then digested with the Nar I enzyme and purified by the same method as above.
(§4) These amplicons were transfected, in a culture format comprising a 25 cm^2 flask seeded the day before at a density of 5.2×10^4 cells/cm^2, with 200 to 400 ng of amplicon/cm^2.
(§5) After 60 hours, the cells were trypsinized and then treated with DNAse. After trypsinization, the cells were taken up in culture medium supplemented 50/50 with the two-times concentrated DNAse buffer (50 mM Tris, 1 mM CaCl2, 5 mM MgCl2, pH 8, 400 μg/ml of DNAse I) containing DNAse I, and incubated for 45 min at 37°. After pelleting, the cells were taken up in culture medium and distributed into 96-well culture plates coated (BioCoat) with collagen at a density of 6×10^4 cells/cm^2 in a volume corresponding to half the final volume used for the treatment with the drugs to be tested. This volume was completed with the 2-times concentration range of the drugs studied (Lamivudine and Adefovir)
(§6) The ranges used were from 100 to 0.01 μM for Lamivudine and from 100 to 6.25 μM for Adefovir. These cultures were treated with these dilutions for 4 days.
(§7) At the end of these 4 days of treatment, the viral DNA was extracted.
(§8) This step was carried out after washing the cells with PBS and adding the extraction buffer, i.e. 50 μl per 30 mm^2 (96-well format) (25 mM Tris, 0.5 mM CaCl2, 2.5 mM MgCl2, pH 8, 0.4 mg/ml DNAse, 0.4 mg/ml RNAse, 1% NP40). The lysis lasted one hour at 37° C. with agitation on a Heidolph Titramax 1000 plate mixer at a rotation rate of about 1050 rpm.
(§9) After this step of lysis and of digestion with DNAse and RNAse, the viral DNA produced during the culturing remains protected in the viral capsids. […]
(§10) This denaturation step was then stopped by adding a neutralizing buffer, 15 μl of 1M Tris at pH 7, and the solution thus obtained was subjected to a dilution before quantification by real time PCR. […]
(§11) The viral DNA extracted was then quantified by means of real time PCR quantification method.
(§12) This HBV production quantification step can be directly carried out after the preceding step, without any need to purify or concentrate the cell lysates to be assayed. […] (quantification step), and a final extension of one minute at 63° C. […]
(§13) For each plate assayed, a standard curve of 10^6 to 10^2 HBV copies/reaction was quantified in parallel. […]

[2] = tested on: reference HBV, genotype D, ayw serotype, wild-type phenotype; test: High throughput phenotyping assay, HBV genomic amplicon transfected, viral DNA by real time PCR: referent virus; assay type: cell-based; conditions: Hepatitis B virus, 96 h, Referent virus (genotype D, ayw, without known mutation), 4 days treatment
Description: In addition to the 6 samples analysed, a control was included. This control is a genome of the reference HBV, genotype D, having an ayw serotype and a wild-type phenotype for all the drugs studied. This genome was amplified by the same technique as the samples analysed using a plasmid.
as §2, §3, §4
After 60 hours, the cells were trypsinized and then treated with DNAse. […]
as §10, §11, §12

[3] = tested on: HBV quasi-species of patient sample N° 21; test: High throughput phenotyping assay: patient sample N° 21; assay type: cell-based, hepatitis B virus; conditions: for IC50: Hepatitis B virus, 96 h, sample N° 21, D0 3TC, naïve, INNO LiPA wt, 4 days treatment; for Increase in resistance: sample N° 21, IC50 compared with referent virus
Description: as §1, §2, §3, §4, §5, §6, §7, §8, §9, §10, §11, §12, §13

[4] = tested on: HBV quasi-species of patient sample N° 19; test: High throughput phenotyping assay: patient sample N° 19; assay type: cell-based, hepatitis B virus; conditions: for IC50: Hepatitis B virus, 96 h, sample N° 19, M24 3TC M3 PMEA, INNO LiPA L180M A181V, 4 days treatment; for Increase in resistance: IC50 compared with referent virus
Description: as §1, §2, §3, §4, §5, §6, §7, §8
After this step of lysis and of digestion with DNAse and RNAse, the viral DNA produced during the culturing remains protected in the viral capsids. This DNA was then extracted by denaturation of the viral capsids by means of alkalinization of the extraction buffer by addition of NaOH, i.e. 15 μl of a 0.4M solution per 50 μl of extraction buffer. This denaturation was carried out at 37° C. for 30 min under the same agitation conditions as during the treatment with DNAse, i.e. on a Heidolph Titramax 1000 plate mixer at a rotation rate of about 1050 rpm.
This denaturation step was then stopped by adding a neutralizing buffer, 15 μl of 1M Tris at pH 7, and the solution thus obtained was subjected to a dilution before quantification by real time PCR. The final dilution is ⅕ relative to the initial volume of extraction buffer, i.e. an addition of 170 μl of water in a 96-well format.
as §11
This HBV production quantification step can be directly carried out after the preceding step, without any need to purify or concentrate the cell lysates to be assayed. The real time PCR can be carried out in the same format as the culture format, i.e. a 96-well format on the Biorad MyiQ device, using the real time kit and the consumables suitable for this device, i.e. the iQ™ Sybr® Green Supermix two-times concentrated PCR mix. […] (quantification step), and a final extension of one minute at 63° C. […]
as §13

[5] = tested on: HBV quasi-species of patient sample N° 17; test: High throughput phenotyping assay: patient sample N° 17; assay type: cell-based, hepatitis B virus; conditions: for IC50: Hepatitis B virus, 96 h, sample N° 17, M24 3TC, INNO LiPA L180M ± M204I, 4 days treatment; for Increase in resistance: sample N° 17, IC50 compared with referent virus
Description: as §1, §2, §3, §4, §5, §6, §7, §8, §9, §10, §11, §12, §13

[6] = tested on: HBV quasi-species of patient sample N° 3; test: High throughput phenotyping assay: patient sample N° 3; assay type: cell-based, hepatitis B virus; conditions: for IC50: Hepatitis B virus, 96 h, sample N° 3, D0 3TC, naïve, INNO LiPA wt, 4 days treatment; for Increase in resistance: sample N° 3, IC50 compared with referent virus
Description: as §1, §2, §3, §4, §5, §6, §7, §8, §9, §10, §11, §12, §13

[7] = tested on: HBV quasi-species of patient sample N° 5; test: High throughput phenotyping assay: patient sample N° 5; assay type: cell-based, hepatitis B virus; conditions: for IC50: Hepatitis B virus, 96 h, sample N° 5, D0 3TC, naïve, INNO LiPA wt, 4 days treatment; for Increase in resistance: sample N° 5, IC50 compared with referent virus
Description: as §1, §2, §3, §4, §5, §6, §7, §8, §9, §10, §11, §12, §13

HBV = conditions: cited from earlier work

Row | Compound | IC50 [1] | Increase in resistance [1] | IC50 [2] | IC50 [3] | Increase in resistance [3] | IC50 [4] | Increase in resistance ([4]; sample N° 19) | IC50 [5] | Increase in resistance [5] | IC50 [6] | Increase in resistance [6] | IC50 [7] | Increase in resistance [7] | chronic carriers that it is possible to treat (HBV) | in vitro phenotype ([4]; sample N° 19)
1 | Nc1ccn([C@@H]2CS[C@H](CO)O2)c(=O)n1 [Lamivudine] | > 100 µM | >1000 | 0.1 µM | 0.14 µM | 1.4 | 40 µM | 400 | > 100 µM | >1000 | 0.7 µM | 7 | 0.2 µM | 2 |  | 
2 | alpha-interferon |  |  |  |  |  |  |  |  |  |  |  |  |  | approximately 40% | 
3 | Nc1ncnc2c1ncn2CCOCP(=O)(O)O [Adefovir] | 13.5 µM | 1.7 | 8 µM | 14.5 µM | 1.8 | 52 µM | 6.5 | 14 µM | 1.75 | 9 µM | 1.1 | 8 µM | 1 |  | doubly resistant
